Data reported in ChEMBL document CHEMBL1201862, “PubChem BioAssay data set” (2004).
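How tested: cells in 96-well plates exposed to compound for 48 hours at five concentrations. GI50: concentration for 50% inhibition of growth.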 Activity calls are given as the source filed them. Cut-off read from the data, not from the text of the source: active = GI50 up to about 1.1 µM and inactive = higher.

How the values were obtained:
Test in all cases: DTP human tumour cell line panel, 48 h
ACHN = test system: ACHN
CAKI-1 = test system: CAKI-1
HCT-15 = test system: HCT-15
HL-60 = test system: HL-60
HOP-92 = test system: HOP-92
Hs-578T = test system: Hs-578T
M14 = test system: M14
MOLT-4 = test system: MOLT-4
NCI-H23 = test system: NCI-H23
NCI-H460 = test system: NCI-H460
NCI-H522 = test system: NCI-H522
NCI/ADR-RES = test system: NCI/ADR-RES
OVCAR-4 = test system: OVCAR-4
OVCAR-8 = test system: OVCAR-8
PC-3 = test system: PC-3
SF-268 = test system: SF-268
SF-295 = test system: SF-295
SNB-19 = test system: SNB-19
SNB-75 = test system: SNB-75
T47D = test system: T47D

Row | SMILES | GI50 (ACHN) | GI50 (CAKI-1) | GI50 (HCT-15) [µM] | GI50 (HL-60) | GI50 (HOP-92) | GI50 (Hs-578T) | GI50 (M14) | GI50 (MOLT-4) | GI50 (NCI-H23) | GI50 (NCI-H460) | GI50 (NCI-H522) | GI50 (NCI/ADR-RES) | GI50 (OVCAR-4) | GI50 (OVCAR-8) | GI50 (PC-3) | GI50 (SF-268) | GI50 (SF-295) | GI50 (SNB-19) | GI50 (SNB-75) | GI50 (T47D)
1 | CCOC(=O)C(=Cc1ccccc1Br)C(=O)OCC | 2.59 µM (inactive) | 2.53 µM (inactive) | 1.67 | 0.585 µM (active) | 3.4 µM (inactive) | 3.4 µM (inactive) | 0.424 µM (active) | 0.32 µM (active) | 2.48 µM (inactive) | 3.26 µM (inactive) | 1.64 µM (inactive) | 4.65 µM (inactive) | 4.09 µM (inactive) | 2.38 µM (inactive) | 2.93 µM (inactive) | 3.11 µM (inactive) | 3.26 µM (inactive) | 2.53 µM (inactive) | 5.58 µM (inactive) | 
2 | C=CCCC(CCC=C)(C(=O)O)C(=O)O | > 100 µM (inactive) |  | > 100 | > 100 µM (inactive) |  | > 100 µM (inactive) | > 100 µM (inactive) | > 100 µM (inactive) | > 100 µM (inactive) | > 100 µM (inactive) | > 100 µM (inactive) | > 100 µM (inactive) |  | > 100 µM (inactive) | > 100 µM (inactive) | > 100 µM (inactive) | > 100 µM (inactive) | > 100 µM (inactive) | > 100 µM (inactive) | 
3 | COc1ccc(-c2cc3ccccc3oc2=O)cc1OC | > 100 µM (inactive) | > 100 µM (inactive) | > 100 | > 100 µM (inactive) | > 100 µM (inactive) | > 100 µM (inactive) | > 100 µM (inactive) | > 100 µM (inactive) | > 100 µM (inactive) |  | > 100 µM (inactive) | > 100 µM (inactive) | > 100 µM (inactive) | > 100 µM (inactive) |  | > 100 µM (inactive) | > 100 µM (inactive) | 90.6 µM (inactive) | 60.3 µM (inactive) | > 100 µM (inactive)
4 | CN(C)c1ccc(/C=N/N=C2\C(=O)Nc3c(Cl)cc(Cl)cc32)cc1 | 97.9 µM (inactive) | 55.8 µM (inactive) | 32.4 | 28.6 µM (inactive) | 92.5 µM (inactive) | 24.7 µM (inactive) | 45.9 µM (inactive) | 16.4 µM (inactive) | 46.3 µM (inactive) | 41 µM (inactive) |  | 20.2 µM (inactive) | > 100 µM (inactive) | 93.1 µM (inactive) | 29.5 µM (inactive) |  | 32.9 µM (inactive) | > 100 µM (inactive) | 22.8 µM (inactive) | 
5 | NNC(=O)Cn1ccnn1 | > 100 µM (inactive) | > 100 µM (inactive) | > 100 | > 100 µM (inactive) | > 100 µM (inactive) |  | > 100 µM (inactive) | > 100 µM (inactive) | > 100 µM (inactive) | > 100 µM (inactive) | > 100 µM (inactive) | > 100 µM (inactive) |  | > 100 µM (inactive) | > 100 µM (inactive) | > 100 µM (inactive) | > 100 µM (inactive) | > 100 µM (inactive) | > 100 µM (inactive) | 
6 | CC(C)Cc1cc(CCC(=O)Nc2ccccc2[N+](=O)[O-])nc(NC#N)n1 | > 100 µM (inactive) | > 100 µM (inactive) | > 100 | > 100 µM (inactive) | > 100 µM (inactive) |  | > 100 µM (inactive) | > 100 µM (inactive) | > 100 µM (inactive) | > 100 µM (inactive) | > 100 µM (inactive) |  | > 100 µM (inactive) | > 100 µM (inactive) |  | > 100 µM (inactive) | > 100 µM (inactive) | > 100 µM (inactive) | > 100 µM (inactive) | 
7 | C/C(=N/O)C1CC=C(S(=O)(=O)c2ccccc2)C1 (stereo unspecified) | > 100 µM (inactive) | > 100 µM (inactive) | > 100 | > 100 µM (inactive) | > 100 µM (inactive) |  | > 100 µM (inactive) | > 100 µM (inactive) | > 100 µM (inactive) | > 100 µM (inactive) | > 100 µM (inactive) |  | > 100 µM (inactive) | > 100 µM (inactive) |  | > 100 µM (inactive) | > 100 µM (inactive) | > 100 µM (inactive) | > 100 µM (inactive) | 
8 | Cc1cccc2c(=O)c3c(O)cc4c(c3n(C)c12)C=CC(C)(C)O4 | > 100 µM (inactive) | > 100 µM (inactive) | 18.7 | 45.7 µM (inactive) | 21.6 µM (inactive) | 39.4 µM (inactive) | 28.3 µM (inactive) | 29.1 µM (inactive) | 33 µM (inactive) | 31.2 µM (inactive) | > 100 µM (inactive) | 31.8 µM (inactive) | 43.9 µM (inactive) | > 100 µM (inactive) | 91.8 µM (inactive) | > 100 µM (inactive) | 25.1 µM (inactive) | > 100 µM (inactive) | 97.5 µM (inactive) | 
9 | Cc1nc(N)sc1C(=O)/C=C\c1ccc2c(c1)OCO2 | > 100 µM (inactive) | > 100 µM (inactive) | > 100 | > 100 µM (inactive) | > 100 µM (inactive) |  | > 100 µM (inactive) | > 100 µM (inactive) | > 100 µM (inactive) | > 100 µM (inactive) | > 100 µM (inactive) |  | > 100 µM (inactive) | > 100 µM (inactive) |  | > 100 µM (inactive) | > 100 µM (inactive) | > 100 µM (inactive) | > 100 µM (inactive) | 
10 | O=C1c2ccccc2C2CCC1c1ccccc12 (stereo unspecified) | 25.6 µM (inactive) | 34.8 µM (inactive) | 30.6 | 15 µM (inactive) | 20.3 µM (inactive) |  | 36.5 µM (inactive) | 18 µM (inactive) | 24 µM (inactive) | 33.3 µM (inactive) | 25 µM (inactive) |  | 30.1 µM (inactive) | 43.2 µM (inactive) |  | 31.1 µM (inactive) | 33.4 µM (inactive) | 65 µM (inactive) | 24.5 µM (inactive) | 
11 | NNC(=O)c1ccc(-n2nnc(C(=O)NN)c2C(=O)NN)cc1 | > 100 µM (inactive) | > 100 µM (inactive) | > 100 | > 100 µM (inactive) | > 100 µM (inactive) |  | > 100 µM (inactive) | > 100 µM (inactive) | > 100 µM (inactive) | > 100 µM (inactive) |  | > 100 µM (inactive) | > 100 µM (inactive) | > 100 µM (inactive) | > 100 µM (inactive) |  | > 100 µM (inactive) | > 100 µM (inactive) |  | 
12 | O=C1CCCCCCCCCCC1CN1CCOCC1 (stereo unspecified) | > 100 µM (inactive) |  | > 100 | > 100 µM (inactive) | > 100 µM (inactive) | 30.3 µM (inactive) | > 100 µM (inactive) | 66.1 µM (inactive) | > 100 µM (inactive) |  | > 100 µM (inactive) |  | > 100 µM (inactive) | > 100 µM (inactive) | > 100 µM (inactive) | > 100 µM (inactive) | > 100 µM (inactive) | > 100 µM (inactive) | 2.45 µM (inactive) | > 100 µM (inactive)
13 | C[C@@H]1[C@H](O)CC2=C(CC[C@@H](O)C2(C)C)[C@@]1(CO)CCc1ccoc1 | > 50 µM (inactive) | > 50 µM (inactive) | > 50 | 15.8 µM (inactive) | > 50 µM (inactive) | > 50 µM (inactive) | > 50 µM (inactive) | 34.7 µM (inactive) | > 50 µM (inactive) | > 50 µM (inactive) |  | > 50 µM (inactive) | > 50 µM (inactive) | > 50 µM (inactive) | 46.3 µM (inactive) |  | > 50 µM (inactive) | > 50 µM (inactive) | 31.8 µM (inactive) | 
14 | S=C(Nc1ccccc1)N(Cc1ccccc1)c1ccccc1 | 35 µM (inactive) | 24.2 µM (inactive) | 40.4 | 27.8 µM (inactive) | 29.9 µM (inactive) | 20 µM (inactive) | 40.1 µM (inactive) | 25.5 µM (inactive) | > 100 µM (inactive) | 28.6 µM (inactive) | 21 µM (inactive) | > 100 µM (inactive) | 23.7 µM (inactive) |  |  | 34.8 µM (inactive) | 34.3 µM (inactive) | 80.2 µM (inactive) | 22.5 µM (inactive) | 56 µM (inactive)
15 | Cc1ccc(S(=O)(=O)OC2CC(C(C)(C)C)CCC2c2ccccc2)cc1 (stereo unspecified) | 54.6 µM (inactive) | 66.1 µM (inactive) | > 100 | > 100 µM (inactive) | 23.3 µM (inactive) |  | 88.7 µM (inactive) | 44.6 µM (inactive) | > 100 µM (inactive) | 78.7 µM (inactive) |  | > 100 µM (inactive) | 34.9 µM (inactive) | > 100 µM (inactive) | 70 µM (inactive) |  | 42.1 µM (inactive) | 86.7 µM (inactive) | 27.9 µM (inactive) | 53.7 µM (inactive)
16 | COc1cc2c[n+](C)c3c4cc(OC)c(OC)cc4c(OCCCCCCCCOc4cc5c6cc(OC)c(OC)cc6c[n+](C)c5c5cc(OC)c(OC)cc45)cc3c2cc1OC | > 100 µM (inactive) | > 100 µM (inactive) | > 100 | 2.23 µM (inactive) | > 100 µM (inactive) |  | > 100 µM (inactive) | 31.6 µM (inactive) | > 100 µM (inactive) | > 100 µM (inactive) | > 100 µM (inactive) |  | > 100 µM (inactive) | > 100 µM (inactive) |  | > 100 µM (inactive) | > 100 µM (inactive) | 17.4 µM (inactive) | 58.6 µM (inactive) | 
17 | COC(=O)C(C#N)=C1c2ccccc2Oc2ccccc21 | 66.7 µM (inactive) | > 100 µM (inactive) | > 100 | 20.8 µM (inactive) | 30.5 µM (inactive) |  | 53.8 µM (inactive) | 35.4 µM (inactive) | 56.9 µM (inactive) | > 100 µM (inactive) | 24.9 µM (inactive) |  | 43.8 µM (inactive) | 43.4 µM (inactive) |  | 63 µM (inactive) | 46.5 µM (inactive) | 41.6 µM (inactive) | 42.2 µM (inactive) | 
